Measured values taken from ChEMBL document CHEMBL3580636, “Discovery of a Potent Class of PI3Kα Inhibitors with Unique Binding Mode via Encoded Library Technology (ELT)” (ACS Med Chem Lett, 2015).

Assays:
[1] = target: Phosphatidylinositol 4,5-bisphosphate 3-kinase catalytic subunit alpha isoform (Homo sapiens, UniProt P42336); assay: Inhibition of wild type his-tagged PI3Kalpha (unknown origin)
[2] = target: Phosphatidylinositol 4,5-bisphosphate 3-kinase catalytic subunit alpha isoform (Homo sapiens, UniProt P42336, H1047R); assay: Inhibition of PI3Kalpha H1047R mutant (unknown origin)
Phosphatidylinositol 4,5-bisphosphate 3-kinase catalytic subunit alpha isoform (Homo sapiens, UniProt P42336, H1047R), sequence (P42336 whole entry H1047R, canonical isoform): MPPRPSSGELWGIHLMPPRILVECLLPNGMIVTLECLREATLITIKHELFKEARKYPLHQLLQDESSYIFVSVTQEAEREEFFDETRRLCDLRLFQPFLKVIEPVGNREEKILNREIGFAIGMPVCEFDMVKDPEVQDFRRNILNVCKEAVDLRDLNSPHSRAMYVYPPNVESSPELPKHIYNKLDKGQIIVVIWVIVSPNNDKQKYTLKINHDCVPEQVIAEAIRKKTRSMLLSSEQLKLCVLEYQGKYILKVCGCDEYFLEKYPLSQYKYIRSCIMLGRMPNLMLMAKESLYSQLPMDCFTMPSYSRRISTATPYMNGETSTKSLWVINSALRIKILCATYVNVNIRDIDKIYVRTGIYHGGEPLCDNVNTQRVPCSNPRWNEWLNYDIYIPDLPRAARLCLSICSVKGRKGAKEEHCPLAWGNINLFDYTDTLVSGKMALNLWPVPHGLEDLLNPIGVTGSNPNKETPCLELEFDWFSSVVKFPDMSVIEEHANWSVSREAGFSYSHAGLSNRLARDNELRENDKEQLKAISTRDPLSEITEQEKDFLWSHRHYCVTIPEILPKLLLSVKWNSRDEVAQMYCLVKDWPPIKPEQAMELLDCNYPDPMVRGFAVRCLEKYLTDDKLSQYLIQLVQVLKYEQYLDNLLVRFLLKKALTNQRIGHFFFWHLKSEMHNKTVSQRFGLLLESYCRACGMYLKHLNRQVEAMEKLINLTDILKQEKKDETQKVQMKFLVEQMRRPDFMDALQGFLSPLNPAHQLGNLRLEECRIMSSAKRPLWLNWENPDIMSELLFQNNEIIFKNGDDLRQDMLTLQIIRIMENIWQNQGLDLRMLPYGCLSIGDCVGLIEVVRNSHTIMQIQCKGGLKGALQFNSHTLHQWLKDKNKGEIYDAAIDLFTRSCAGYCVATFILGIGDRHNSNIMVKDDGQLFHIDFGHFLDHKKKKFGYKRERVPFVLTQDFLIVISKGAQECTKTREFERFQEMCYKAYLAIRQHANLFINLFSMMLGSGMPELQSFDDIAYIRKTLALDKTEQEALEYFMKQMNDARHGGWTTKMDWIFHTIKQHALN

[3] = target: T1, Phosphatidylinositol 4,5-bisphosphate 3-kinase catalytic subunit delta isoform (Homo sapiens, UniProt O00329); assay: Inhibition of PI3Kdelta (unknown origin)
T1 sequence (O00329 whole entry): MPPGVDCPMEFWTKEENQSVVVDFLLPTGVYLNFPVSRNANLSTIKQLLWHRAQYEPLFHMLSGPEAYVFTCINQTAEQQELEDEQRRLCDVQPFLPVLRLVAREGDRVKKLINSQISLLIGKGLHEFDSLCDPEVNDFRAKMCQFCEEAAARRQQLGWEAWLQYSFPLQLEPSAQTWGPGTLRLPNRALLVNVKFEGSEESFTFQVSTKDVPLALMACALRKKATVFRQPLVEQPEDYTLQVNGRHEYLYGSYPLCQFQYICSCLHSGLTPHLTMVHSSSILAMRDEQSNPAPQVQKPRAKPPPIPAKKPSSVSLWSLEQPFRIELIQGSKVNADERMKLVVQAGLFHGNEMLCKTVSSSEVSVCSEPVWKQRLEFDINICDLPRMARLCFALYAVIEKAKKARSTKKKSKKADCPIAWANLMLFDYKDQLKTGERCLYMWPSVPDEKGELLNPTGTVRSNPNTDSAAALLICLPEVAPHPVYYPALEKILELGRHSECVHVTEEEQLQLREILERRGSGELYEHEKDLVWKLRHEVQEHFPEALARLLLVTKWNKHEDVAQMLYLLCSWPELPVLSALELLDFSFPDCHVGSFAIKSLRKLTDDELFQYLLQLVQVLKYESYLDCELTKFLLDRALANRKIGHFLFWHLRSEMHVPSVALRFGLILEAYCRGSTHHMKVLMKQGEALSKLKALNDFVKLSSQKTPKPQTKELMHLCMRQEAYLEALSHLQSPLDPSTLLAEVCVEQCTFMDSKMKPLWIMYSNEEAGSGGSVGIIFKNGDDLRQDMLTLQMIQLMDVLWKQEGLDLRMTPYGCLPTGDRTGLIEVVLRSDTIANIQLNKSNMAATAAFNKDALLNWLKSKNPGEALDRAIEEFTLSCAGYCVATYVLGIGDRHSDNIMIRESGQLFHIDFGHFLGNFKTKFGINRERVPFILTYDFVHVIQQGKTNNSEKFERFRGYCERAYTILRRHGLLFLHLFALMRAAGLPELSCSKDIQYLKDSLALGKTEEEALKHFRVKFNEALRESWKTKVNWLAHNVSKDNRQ

[4] = target: Phosphatidylinositol 4,5-bisphosphate 3-kinase catalytic subunit gamma isoform (Homo sapiens, UniProt P48736); assay: Inhibition of PI3Kgamma (unknown origin)
Phosphatidylinositol 4,5-bisphosphate 3-kinase catalytic subunit gamma isoform, sequence (P48736 whole entry, canonical isoform): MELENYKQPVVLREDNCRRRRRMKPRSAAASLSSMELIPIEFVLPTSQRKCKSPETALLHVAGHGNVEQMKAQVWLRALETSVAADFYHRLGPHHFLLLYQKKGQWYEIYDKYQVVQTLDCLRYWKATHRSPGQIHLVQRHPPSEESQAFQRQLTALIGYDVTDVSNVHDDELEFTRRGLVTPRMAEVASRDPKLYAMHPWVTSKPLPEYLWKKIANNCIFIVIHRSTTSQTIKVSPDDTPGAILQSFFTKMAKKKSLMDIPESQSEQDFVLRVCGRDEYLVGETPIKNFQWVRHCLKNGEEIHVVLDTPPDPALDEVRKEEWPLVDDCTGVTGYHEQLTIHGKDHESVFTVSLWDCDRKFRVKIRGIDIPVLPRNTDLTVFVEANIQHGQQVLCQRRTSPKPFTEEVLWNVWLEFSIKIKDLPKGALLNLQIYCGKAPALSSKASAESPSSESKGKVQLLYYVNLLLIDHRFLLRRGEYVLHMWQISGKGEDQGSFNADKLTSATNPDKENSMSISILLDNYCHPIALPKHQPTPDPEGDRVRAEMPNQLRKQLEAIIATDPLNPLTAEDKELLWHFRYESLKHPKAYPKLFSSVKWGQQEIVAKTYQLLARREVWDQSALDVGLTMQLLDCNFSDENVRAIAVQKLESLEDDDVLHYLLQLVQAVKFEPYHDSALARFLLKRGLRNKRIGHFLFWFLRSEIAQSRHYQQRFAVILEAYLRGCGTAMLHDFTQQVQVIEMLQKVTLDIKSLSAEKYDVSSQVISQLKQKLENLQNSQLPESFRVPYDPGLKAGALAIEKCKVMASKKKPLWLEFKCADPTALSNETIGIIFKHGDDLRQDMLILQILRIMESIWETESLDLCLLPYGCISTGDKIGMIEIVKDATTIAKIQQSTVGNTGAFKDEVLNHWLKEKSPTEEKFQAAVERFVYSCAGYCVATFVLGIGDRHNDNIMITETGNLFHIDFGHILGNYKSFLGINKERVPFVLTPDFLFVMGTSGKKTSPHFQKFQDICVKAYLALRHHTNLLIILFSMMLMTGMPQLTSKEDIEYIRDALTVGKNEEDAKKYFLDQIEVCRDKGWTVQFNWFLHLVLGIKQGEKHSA

[5] = target: Phosphatidylinositol 4,5-bisphosphate 3-kinase catalytic subunit beta isoform (Homo sapiens, UniProt P42338); assay: Inhibition of PI3Kbeta (unknown origin)
Phosphatidylinositol 4,5-bisphosphate 3-kinase catalytic subunit beta isoform, sequence (P42338 whole entry, canonical isoform): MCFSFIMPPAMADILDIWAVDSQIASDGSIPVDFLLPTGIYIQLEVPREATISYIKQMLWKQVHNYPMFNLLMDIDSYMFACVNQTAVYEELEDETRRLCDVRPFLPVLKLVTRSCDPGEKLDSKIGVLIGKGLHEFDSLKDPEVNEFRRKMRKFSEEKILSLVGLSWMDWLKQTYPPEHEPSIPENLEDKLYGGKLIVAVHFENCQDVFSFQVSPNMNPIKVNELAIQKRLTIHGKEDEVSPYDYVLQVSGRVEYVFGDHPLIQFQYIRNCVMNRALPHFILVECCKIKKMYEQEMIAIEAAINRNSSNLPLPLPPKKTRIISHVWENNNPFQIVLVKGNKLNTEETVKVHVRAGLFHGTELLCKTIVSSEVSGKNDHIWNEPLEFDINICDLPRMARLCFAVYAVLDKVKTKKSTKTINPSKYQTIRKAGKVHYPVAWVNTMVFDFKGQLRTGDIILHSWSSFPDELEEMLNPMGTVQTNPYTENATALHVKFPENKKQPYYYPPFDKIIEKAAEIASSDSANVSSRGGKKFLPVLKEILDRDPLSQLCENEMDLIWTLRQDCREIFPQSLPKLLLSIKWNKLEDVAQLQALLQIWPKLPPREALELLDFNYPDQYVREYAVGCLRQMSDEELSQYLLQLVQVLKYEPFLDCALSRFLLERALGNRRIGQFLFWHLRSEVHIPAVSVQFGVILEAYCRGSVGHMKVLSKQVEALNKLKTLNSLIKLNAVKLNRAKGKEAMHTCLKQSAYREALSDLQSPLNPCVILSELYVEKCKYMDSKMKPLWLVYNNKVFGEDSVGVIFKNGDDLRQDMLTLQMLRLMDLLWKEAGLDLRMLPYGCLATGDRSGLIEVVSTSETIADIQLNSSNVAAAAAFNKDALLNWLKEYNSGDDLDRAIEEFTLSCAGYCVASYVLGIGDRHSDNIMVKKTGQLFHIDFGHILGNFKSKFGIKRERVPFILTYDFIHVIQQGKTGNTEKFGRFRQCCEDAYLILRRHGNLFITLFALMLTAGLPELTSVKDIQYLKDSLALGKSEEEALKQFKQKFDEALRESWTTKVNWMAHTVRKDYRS

Homo sapiens [6] = species on record: Homo sapiens; assay: Selectivity ratio of IC50 for PI3Kdelta (unknown origin) to IC50 for wild type his-tagged PI3Kalpha (unknown origin)
Homo sapiens [7] = species on record: Homo sapiens; assay: Selectivity ratio of IC50 for PI3Kbeta (unknown origin) to IC50 for wild type his-tagged PI3Kalpha (unknown origin)

Phosphatidylinositol 4,5-bisphosphate 3-kinase catalytic subunit alpha isoform (Homo sapiens, UniProt P42336), sequence (P42336 whole entry, canonical isoform): as the sequence (P42336 whole entry H1047R, canonical isoform) above, with R1047H counted along it

Row | Structure (SMILES) | IC50 [1] | IC50 [2] | IC50 [3] | IC50 [4] | IC50 [5] | Ratio IC50 (Homo sapiens [6]) | Ratio IC50 (Homo sapiens [7])
1 | COC(=O)c1cc(I)cc(CNc2ccc(S(=O)(=O)Nc3nnc(C)s3)cc2)c1 | > 25 µM | 13 µM | – | – | – | – | –
2 | COc1ccc(-c2cc(CNc3ccc(S(=O)(=O)Nc4nnc(C)s4)cc3)cc(C(=O)NCCc3ccccc3F)c2)cn1 | 0.0065 µM | 0.013 µM | 0.01 µM | 0.0044 µM | 0.7 µM | – | –
3 | COc1ccc(-c2cc(CNc3ccc(S(=O)(=O)Nc4nnc(C)s4)cc3)cc(C(=O)NCCC(C)C)c2)cn1 | 0.0096 µM | 0.011 µM | 0.004 µM | 0.01 µM | 0.398 µM | – | –
4 | COc1ccc(-c2cccc(CNc3ccc(S(=O)(=O)Nc4nnc(C)s4)cc3)c2)cn1 | 0.102 µM | – | 0.044 µM | 0.052 µM | 0.765 µM | – | –
5 | COc1ccc(-c2cc(CNc3ccc(S(=O)(=O)N(C)c4nnc(C)s4)cc3)cc(C(=O)NCCc3ccccc3F)c2)cn1 | 2 µM | > 10 µM | 2 µM | > 10 µM | > 10 µM | – | –
6 | COc1ccc(-c2cc(CNc3ccc(S(=O)(=O)Nc4nnc(C)s4)cc3)cc(C(=O)NC(CO)CO)c2)cn1 | 0.016 µM | 0.016 µM | 0.02 µM | 0.025 µM | 0.79 µM | – | –

Next, values leading:

Row | IC50 [1] | IC50 [2] | IC50 [3] | IC50 [4] | IC50 [5] | Ratio IC50 (Homo sapiens [6]) | Ratio IC50 (Homo sapiens [7]) | Structure (SMILES)
7 | 0.046 µM | 0.03 µM | – | – | – | – | – | COC(=O)c1cc(CNc2ccc(S(=O)(=O)Nc3nnc(C)s3)cc2)cc(-c2ccc(OC)nc2)c1
8 | 0.0126 µM | – | 0.0631 µM | 0.002 µM | 0.126 µM | 5 | 5 | Cc1nnc(NS(=O)(=O)c2ccc(NCc3cc(C(=O)O)cc(-c4ccc5c(c4)OCCO5)c3)cc2)s1
9 | 0.0398 µM | – | 0.199 µM | 0.004 µM | 0.501 µM | 5 | 5 | Cc1nnc(NS(=O)(=O)c2ccc(NCc3cc(C(=O)O)cc(-c4ccc5c(c4)OCO5)c3)cc2)s1
10 | 0.01 µM | 0.0085 µM | 0.059 µM | 0.0026 µM | 0.149 µM | 5 | 5 | COc1ccc(-c2cc(CNc3ccc(S(=O)(=O)Nc4nnc(C)s4)cc3)cc(C(=O)O)c2)cn1
